This test addresses Dipeptidyl peptidase 4 (Homo sapiens, UniProt P27487). The experiment in a line: Inhibitory activity against hydrolysis of Gly-Pro-pNa by CD26 (Dipeptidyl peptidase IV) purified from CEM H01 cells. The test is classed as cell-free, CCRF-CEM.

The structures appear in SMILES notation.

Chain of Dipeptidyl peptidase 4 (P27487 whole entry): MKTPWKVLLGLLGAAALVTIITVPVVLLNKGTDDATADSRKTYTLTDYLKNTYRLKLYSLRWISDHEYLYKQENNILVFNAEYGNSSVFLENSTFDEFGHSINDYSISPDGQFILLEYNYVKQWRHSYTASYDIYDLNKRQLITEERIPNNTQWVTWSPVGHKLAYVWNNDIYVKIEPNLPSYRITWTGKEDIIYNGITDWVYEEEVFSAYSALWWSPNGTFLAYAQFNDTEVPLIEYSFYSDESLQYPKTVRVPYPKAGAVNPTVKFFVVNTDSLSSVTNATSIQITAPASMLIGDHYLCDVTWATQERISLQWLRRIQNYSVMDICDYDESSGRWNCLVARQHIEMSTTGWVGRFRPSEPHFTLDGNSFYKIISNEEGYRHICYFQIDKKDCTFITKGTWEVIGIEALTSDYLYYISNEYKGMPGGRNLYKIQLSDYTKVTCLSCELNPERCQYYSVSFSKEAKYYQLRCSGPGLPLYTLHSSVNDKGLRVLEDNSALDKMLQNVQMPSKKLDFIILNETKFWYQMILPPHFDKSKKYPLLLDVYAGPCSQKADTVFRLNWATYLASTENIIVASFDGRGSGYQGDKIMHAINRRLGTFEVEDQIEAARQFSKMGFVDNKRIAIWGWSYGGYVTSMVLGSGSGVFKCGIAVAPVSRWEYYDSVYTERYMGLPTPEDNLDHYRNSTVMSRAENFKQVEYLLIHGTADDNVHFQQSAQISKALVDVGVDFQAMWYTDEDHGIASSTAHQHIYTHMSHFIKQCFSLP

The molecule `CCCCCCCC[S+](CCCCCCCC)Cc1ccc2cc1C(=O)NCC(=O)NCC(=O)NCCCC[C@H](N)C(=O)N1CCC[C@H]1C(=O)N2` returned an IC50 of 0.03 µM.

Values taken from ChEMBL document CHEMBL1131574, “Specific and irreversible cyclopeptide inhibitors of dipeptidyl peptidase IV activity of the T-cell activation antigen CD26” (J Med Chem, 1998).
